{"source": "patent US20050070510A1", "about": "“Substituted tetracycline compounds as synergistic antifungal agents” (Paratek Pharmaceuticals, Inc., priority 2001, published 2005)", "data": [{"system": "COS-1 cells", "experiment": "In vitro mammalian cytotoxicity assay (Resazurin)", "values": [{"smiles": "CN(C)[C@@H]1C(O)=C(C(N)=O)C(=O)[C@@]2(C#N)C(O)=C3C(=O)c4c(O)ccc(-c5ccc(CN6CCCC6)c6ccccc56)c4C[C@@]3(N)C[C@@]12N", "note": "[OO]", "In Vitro Cytotoxicity": "** (toxicities less than 25 μg/mL are represented by **)"}, {"smiles": "CCC(C)C#Cc1ccc(O)c2c1C[C@@]1(N)C[C@@]3(N)[C@H](N(C)C)C(O)=C(C(N)=O)C(=O)[C@@]3(C#N)C(O)=C1C2=O", "note": "(some centres unmarked) [GW]", "In Vitro Cytotoxicity": "** (toxicities less than 25 μg/mL are represented by **)"}, {"smiles": "CCCCC#Cc1ccc(O)c2c1C[C@@]1(N)C[C@@]3(N)[C@H](N(C)C)C(O)=C(C(N)=O)C(=O)[C@@]3(C#N)C(O)=C1C2=O", "note": "[IG]", "In Vitro Cytotoxicity": "** (toxicities less than 25 μg/mL are represented by **)"}, {"smiles": "CCc1cncc(-c2ccc(O)c3c2C[C@@]2(N)C[C@@]4(N)[C@H](N(C)C)C(O)=C(C(N)=O)C(=O)[C@@]4(C#N)C(O)=C2C3=O)c1", "note": "[UY]", "In Vitro Cytotoxicity": "** (toxicities less than 25 μg/mL are represented by **)"}, {"smiles": "C=CCC(O)c1ccc(OC)c(-c2ccc(O)c3c2C[C@@]2(N)C[C@@]4(N)[C@H](N(C)C)C(O)=C(C(N)=O)C(=O)[C@@]4(C#N)C(O)=C2C3=O)c1", "note": "(some centres unmarked) [UE]", "In Vitro Cytotoxicity": "** (toxicities less than 25 μg/mL are represented by **)"}, {"smiles": "COc1ccc(-c2ccc(O)c3c2C[C@@]2(N)C[C@@]4(N)C(N(C)C)C(O)=C(C(N)=O)C(=O)[C@@]4(C#N)C(O)=C2C3=O)cc1C=O", "note": "(some centres unmarked) [QV]", "In Vitro Cytotoxicity": "** (toxicities less than 25 μg/mL are represented by **)"}, {"smiles": "CN(C)CC(=O)Nc1ccc(C#Cc2ccc(O)c3c2C[C@@]2(N)C[C@@]4(N)[C@H](N(C)C)C(O)=C(C(N)=O)C(=O)[C@@]4(C#N)C(O)=C2C3=O)cc1", "note": "[GY]", "In Vitro Cytotoxicity": "* (toxicities greater than >25 μg/ml are represented by *)"}, {"smiles": "COc1ccc(C#Cc2ccc(O)c3c2C[C@@]2(N)C[C@@]4(N)[C@H](N(C)C)C(O)=C(C(N)=O)C(=O)[C@@]4(C#N)C(O)=C2C3=O)cc1", "note": "[FZ]", "In Vitro Cytotoxicity": "** (toxicities less than 25 μg/mL are represented by **)"}, {"smiles": "CCOC(=O)CNCc1ccc(-c2ccc(O)c3c2C[C@@]2(N)C[C@@]4(N)[C@H](N(C)C)C(O)=C(C(N)=O)C(=O)[C@@]4(C#N)C(O)=C2C3=O)c2ccccc12", "note": "[OQ]", "In Vitro Cytotoxicity": "** (toxicities less than 25 μg/mL are represented by **)"}, {"smiles": "COc1ccc(CNCc2cccc(F)c2)cc1-c1ccc(O)c2c1C[C@@]1(N)C[C@@]3(N)[C@H](N(C)C)C(O)=C(C(N)=O)C(=O)[C@@]3(C#N)C(O)=C1C2=O", "note": "[NG]", "In Vitro Cytotoxicity": "** (toxicities less than 25 μg/mL are represented by **)"}, {"smiles": "CCOC(=O)CNCc1ccc(OC)c(-c2ccc(O)c3c2C[C@@]2(N)C[C@@]4(N)[C@H](N(C)C)C(O)=C(C(N)=O)C(=O)[C@@]4(C#N)C(O)=C2C3=O)c1", "note": "[NK]", "In Vitro Cytotoxicity": "* (toxicities greater than >25 μg/ml are represented by *)"}, {"smiles": "COc1ccc(C=O)cc1-c1ccc(O)c2c1C[C@@]1(N)C[C@@]3(N)[C@H](N(C)C)C(O)=C(C(N)=O)C(=O)[C@@]3(C#N)C(O)=C1C2=O", "note": "[OW]", "In Vitro Cytotoxicity": "* (toxicities greater than >25 μg/ml are represented by *)"}, {"smiles": "CN(C)[C@@H]1C(O)=C(C(N)=O)C(=O)[C@@]2(C#N)C(O)=C3C(=O)c4c(O)ccc(-c5cncnc5)c4C[C@@]3(N)C[C@@]12N", "note": "[TQ]", "In Vitro Cytotoxicity": "* (toxicities greater than >25 μg/ml are represented by *)"}, {"smiles": "CN(C)[C@@H]1C(O)=C(C(N)=O)C(=O)[C@@]2(C#N)C(O)=C3C(=O)c4c(ccc(/C=C/c5ccc(F)cc5)c4O)[C@H](N)[C@@]3(N)[C@H](O)[C@@]12N", "note": "[CE]", "In Vitro Cytotoxicity": "** (toxicities less than 25 μg/mL are represented by **)"}, {"smiles": "CN(C)[C@@H]1C(O)=C(C(N)=O)C(=O)[C@@]2(C#N)C(O)=C3C(=O)c4c(O)ccc(-c5ccc(F)c(F)c5)c4C[C@@]3(N)C[C@@]12N", "note": "[QB]", "In Vitro Cytotoxicity": "** (toxicities less than 25 μg/mL are represented by **)"}, {"smiles": "CN(C)c1cc(CNC(=O)Nc2ccc3c(c2)OCO3)c(O)c2c1C[C@@]1(N)C[C@@]3(N)[C@H](N(C)C)C(O)=C(C(N)=O)C(=O)[C@@]3(C#N)C(O)=C1C2=O", "note": "[MZ]", "In Vitro Cytotoxicity": "* (toxicities greater than >25 μg/ml are represented by *)"}, {"smiles": "CCOC(=O)CNC(=O)c1cccc(-c2cc(N(C)C)c3c(c2O)C(=O)C2=C(O)[C@]4(C#N)C(=O)C(C(N)=O)=C(O)[C@@H](N(C)C)[C@]4(N)C[C@]2(N)C3)c1", "note": "[LM]", "In Vitro Cytotoxicity": "** (toxicities less than 25 μg/mL are represented by **)"}, {"smiles": "CCc1cc(F)c(O)c2c1C[C@@]1(N)C[C@@]3(N)[C@H](N(C)C)C(O)=C(C(N)=O)C(=O)[C@@]3(C#N)C(O)=C1C2=O", "note": "[IR]", "In Vitro Cytotoxicity": "** (toxicities less than 25 μg/mL are represented by **)"}, {"smiles": "CN(C)[C@@H]1C(O)=C(C(N)=O)C(=O)[C@@]2(C#N)C(O)=C3C(=O)c4c(O)ccc(-c5ccc(CNC6CC6)o5)c4C[C@@]3(N)C[C@@]12N", "note": "[SX]", "In Vitro Cytotoxicity": "** (toxicities less than 25 μg/mL are represented by **)"}, {"smiles": "CC(=O)Nc1cccc(-c2ccc(O)c3c2C[C@@]2(N)C[C@@]4(N)[C@H](N(C)C)C(O)=C(C(N)=O)C(=O)[C@@]4(C#N)C(O)=C2C3=O)c1", "note": "[GT]", "In Vitro Cytotoxicity": "* (toxicities greater than >25 μg/ml are represented by *)"}, {"smiles": "CC(=O)c1ccc(-c2cc(N(C)C)c3c(c2O)C(=O)C2=C(O)[C@]4(C#N)C(=O)C(C(N)=O)=C(O)[C@@H](N(C)C)[C@]4(N)C[C@]2(N)C3)cc1", "note": "[Compound HJ, 9-(4′-Acetylphenyl) Minocycline]", "In Vitro Cytotoxicity": "** (toxicities less than 25 μg/mL are represented by **)"}, {"smiles": "CN(C)[C@@H]1C(O)=C(C(N)=O)C(=O)[C@@]2(C#N)C(O)=C3C(=O)c4c(O)ccc(-c5ccc(NC(=O)C6CC6)cc5)c4C[C@@]3(N)C[C@@]12N", "note": "[PB]", "In Vitro Cytotoxicity": "* (toxicities greater than >25 μg/ml are represented by *)"}, {"smiles": "CN(C)c1ccc(-c2cc(CN)c(O)c3c2C[C@@]2(N)C[C@@]4(N)[C@H](N(C)C)C(O)=C(C(N)=O)C(=O)[C@@]4(C#N)C(O)=C2C3=O)cc1", "note": "[QN]", "In Vitro Cytotoxicity": "* (toxicities greater than >25 μg/ml are represented by *)"}, {"smiles": "CN(C)Cc1ccc(-c2cc(N(C)C)c3c(c2O)C(=O)C2=C(O)[C@]4(C#N)C(=O)C(C(N)=O)=C(O)[C@@H](N(C)C)[C@]4(N)C[C@]2(N)C3)cc1", "note": "[IJ]", "In Vitro Cytotoxicity": "* (toxicities greater than >25 μg/ml are represented by *)"}, {"smiles": "CCc1ccc(O)c2c1C[C@@]1(N)C[C@@]3(N)[C@H](N(C)C)C(O)=C(C(N)=O)C(=O)[C@@]3(C#N)C(O)=C1C2=O", "note": "[GE]", "In Vitro Cytotoxicity": "** (toxicities less than 25 μg/mL are represented by **)"}, {"smiles": "CN(C)[C@@H]1C(O)=C(C(N)=O)C(=O)[C@@]2(C#N)C(O)=C3C(=O)c4c(O)ccc(C#Cc5ccccc5F)c4C[C@@]3(N)C[C@@]12N", "note": "[GS]", "In Vitro Cytotoxicity": "** (toxicities less than 25 μg/mL are represented by **)"}, {"smiles": "CN(C)[C@@H]1C(O)=C(C(N)=O)C(=O)[C@@]2(C#N)C(O)=C3C(=O)c4c(O)ccc(-c5ccc(CN6CCCC6)o5)c4C[C@@]3(N)C[C@@]12N", "note": "[PJ]", "In Vitro Cytotoxicity": "* (toxicities greater than >25 μg/ml are represented by *)"}, {"smiles": "COc1ccc(-c2ccc(O)c3c2C[C@@]2(N)C[C@@]4(N)[C@H](N(C)C)C(O)=C(C(N)=O)C(=O)[C@@]4(C#N)C(O)=C2C3=O)c(OC)c1", "note": "[OM]", "In Vitro Cytotoxicity": "** (toxicities less than 25 μg/mL are represented by **)"}, {"smiles": "CN(C)c1cc(NC(=O)Nc2cc(C(F)(F)F)cc(C(F)(F)F)c2)c(O)c2c1C[C@@]1(N)C[C@@]3(N)[C@H](N(C)C)C(O)=C(C(N)=O)C(=O)[C@@]3(C#N)C(O)=C1C2=O", "note": "[IL]", "In Vitro Cytotoxicity": "** (toxicities less than 25 μg/mL are represented by **)"}, {"smiles": "CN(C)[C@@H]1C(O)=C(C(=O)CC(C)(C)C)C(=O)[C@@]2(C#N)C(O)=C3C(=O)c4c(O)c(C(C)(C)C)cc(-c5cccc([N+](=O)O)c5)c4C[C@@]3(N)C[C@@]12N", "note": "[KT]", "In Vitro Cytotoxicity": "** (toxicities less than 25 μg/mL are represented by **)"}, {"smiles": "CN(C)[C@@H]1C(O)=C(C(N)=O)C(=O)[C@@]2(C#N)C(O)=C3C(=O)c4c(ccc(C5C=CCC5)c4O)C(N)[C@@]3(N)[C@H](O)[C@@]12N", "note": "(some centres unmarked) [AY]", "In Vitro Cytotoxicity": "** (toxicities less than 25 μg/mL are represented by **)"}, {"smiles": "CN(C)c1cc(CNCC(C)(C)C)c(O)c2c1C[C@@]1(N)C[C@@]3(N)[C@H](N(C)C)C(O)=C(C(N)=O)C(=O)[C@@]3(C#N)C(O)=C1C2=O", "note": "[TK]", "In Vitro Cytotoxicity": "* (toxicities greater than >25 μg/ml are represented by *)"}, {"smiles": "CCC(=O)O[C@H]1[C@@]2(N)C(=C(O)[C@]3(C#N)C(=O)C(C(N)=O)=C(O)[C@@H](N(C)C)[C@]13N)C(=O)c1c(ccc(NC(=O)Nc3cccc4ccccc34)c1O)[C@@H]2N", "note": "[BL]", "In Vitro Cytotoxicity": "* (toxicities greater than >25 μg/ml are represented by *)"}, {"smiles": "CCCc1cccc(-c2ccc(O)c3c2C[C@@]2(N)C[C@@]4(N)[C@H](N(C)C)C(O)=C(C(N)=O)C(=O)[C@@]4(C#N)C(O)=C2C3=O)c1", "note": "[FY]", "In Vitro Cytotoxicity": "** (toxicities less than 25 μg/mL are represented by **)"}, {"smiles": "CN(C)[C@@H]1C(O)=C(C(N)=O)C(=O)[C@@]2(C#N)C(O)=C3C(=O)c4c(ccc(-c5cc6ccccc6o5)c4O)[C@H](N)[C@@]3(N)[C@H](O)[C@@]12N", "note": "[QC]", "In Vitro Cytotoxicity": "** (toxicities less than 25 μg/mL are represented by **)"}, {"smiles": "COc1ccc(CN2CCCC2)cc1-c1ccc2c(c1O)C(=O)C1=C(O)[C@]3(C#N)C(=O)C(C(N)=O)=C(O)[C@@H](N(C)C)[C@]3(N)[C@@H](O)[C@]1(N)[C@H]2N", "note": "[PR]", "In Vitro Cytotoxicity": "* (toxicities greater than >25 μg/ml are represented by *)"}, {"smiles": "CCCCCOC(=O)NCc1cc(N(C)C)c2c(c1O)C(=O)C1=C(O)[C@]3(C#N)C(=O)C(C(N)=O)=C(O)[C@@H](N(C)C)[C@]3(N)C[C@]1(N)C2", "note": "[NF]", "In Vitro Cytotoxicity": "** (toxicities less than 25 μg/mL are represented by **)"}, {"smiles": "Cc1ccc(/C=C/c2ccc(O)c3c2C[C@@]2(N)C[C@@]4(N)[C@H](N(C)C)C(O)=C(C(N)=O)C(=O)[C@@]4(C#N)C(O)=C2C3=O)cc1", "note": "[HA]", "In Vitro Cytotoxicity": "** (toxicities less than 25 μg/mL are represented by **)"}, {"smiles": "CN(C)[C@@H]1C(O)=C(C(N)=O)C(=O)[C@@]2(C#N)C(O)=C3C(=O)c4c(O)ccc(/C=C/c5ccc(Cl)cc5)c4C[C@@]3(N)C[C@@]12N", "note": "[GV]", "In Vitro Cytotoxicity": "* (toxicities greater than >25 μg/ml are represented by *)"}, {"smiles": "CN(C)[C@@H]1C(O)=C(C(N)=O)C(=O)[C@@]2(C#N)C(O)=C3C(=O)c4c(ccc(Nc5nc(-c6cccc([N+](=O)O)c6)cs5)c4O)[C@H](O)[C@@]3(N)[C@H](O)[C@@]12N", "note": "[DV]", "In Vitro Cytotoxicity": "** (toxicities less than 25 μg/mL are represented by **)"}, {"smiles": "COc1ccc(-c2ccc3c(c2O)C(=O)C2=C(O)[C@]4(C#N)C(=O)C(C(N)=O)=C(O)[C@@H](N(C)C)[C@]4(N)[C@@H](O)[C@]2(N)[C@H]3N)cc1CN1CCCC1", "note": "[PQ]", "In Vitro Cytotoxicity": "* (toxicities greater than >25 μg/ml are represented by *)"}]}]}
